Here are results for 23 compounds from patent US10800792B2, “Inhibitors of Bruton's tyrosine kinase and method of their use” (JANSSEN PHARMACEUTICA NV, priority 2015, dated 2020).

For the test, the target named is unphosphorylated-BTK kinase domain (UP-BTK), GST-tagged human BTK (389-659aa) (Homo sapiens (Human), UniProt Q06187). Kind of test: BTK kinase Lanthascreen binding assay. The settings on record: unphosphorylated-BTK kinase domain, 60 minutes incubation, 50 nM Tracer 236; pIC50 = negative log of the IC50 in molar. Summed up: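 Compound binding to the unphosphorylated kinase domain was monitored by displacement of a fluorescently labelled tracer in a Lanthascreen format. Potency is given as pIC50, the negative log of the molar IC50.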
Chain of unphosphorylated-BTK kinase domain (UP-BTK), GST-tagged human BTK (389-659aa) (Q06187 389-659): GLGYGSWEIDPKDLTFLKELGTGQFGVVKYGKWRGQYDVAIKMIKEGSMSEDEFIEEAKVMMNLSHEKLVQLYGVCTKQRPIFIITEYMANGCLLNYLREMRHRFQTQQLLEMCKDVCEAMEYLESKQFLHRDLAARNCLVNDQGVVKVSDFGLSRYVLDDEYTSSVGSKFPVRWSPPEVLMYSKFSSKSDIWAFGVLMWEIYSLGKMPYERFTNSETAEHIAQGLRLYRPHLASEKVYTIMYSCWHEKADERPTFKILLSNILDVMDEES
For orientation: Time-resolved FRET reads energy transfer from a long-lived donor to a nearby acceptor.
In the case of `O=C(N[C@@H]1CCCNC1)c1sc2nccc3c2c1NC(=O)N3c1cccc(-c2cccnc2)c1` [Example 937, (R)-4-Oxo-N-(piperidin-3-yl)-5-(3-(pyridin-3-yl)phenyl)-4,5-dihydro-3H-1-thia-3,5,8-triazaacenaphthylene-2-carboxamide], the “BTK_I_binding pIC50” value was found to be 6.0.

For `Cc1ccc(Oc2ccccc2)cc1N1C(=O)Nc2c(C(=O)N[C@H]3CCCN(C(=O)/C(C#N)=C/C4CC4)C3)sc3nccc1c23` [Example 938, (S,E)-N-(1-(2-Cyano-3-cyclopropylacryloyl)piperidin-3-yl)-5-(2-methyl-5-phenoxyphenyl)-4-oxo-4,5-dihydro-3H-1-thia-3,5,8-triazaacenaphthylene-2-carboxamide], the “BTK_I_binding pIC50” value is reported as 6.0.

Turning to `N#C/C(=C\C1CC1)C(=O)N1CCC[C@H](NC(=O)c2sc3nccc4c3c2NC(=O)N4c2cccc(Oc3ccccc3)c2)C1` [Example 939, (S,E)-N-(1-(2-Cyano-3-cyclopropylacryloyl)piperidin-3-yl)-4-oxo-5-(3-phenoxyphenyl)-4,5-dihydro-3H-1-thia-3,5,8-triazaacenaphthylene-2-carboxamide], the “BTK_I_binding pIC50” value is 6.0.

In the case of `O=C(N[C@H]1CCN(C(=O)c2ccccc2)C1)c1sc2nccc3c2c1NC(=O)N3c1ccc(Oc2ccccc2)cc1` [Example 940, (S)—N-(1-benzoylpyrrolidin-3-yl)-4-oxo-5-(4-phenoxyphenyl)-4,5-dihydro-3H-1-thia-3,5,8-triazaacenaphthylene-2-carboxamide], the “BTK_I_binding pIC50” value was 5.9.

With `C=CC(=O)N1CCC[C@@H](NC(=O)c2sc3nccc4c3c2NC(=O)N4c2cc(Cl)cc(Cl)c2)C1` [Example 941, (R)—N-(1-Acryloylpiperidin-3-yl)-5-(3,5-dichlorophenyl)-4-oxo-4,5-dihydro-3H-1-thia-3,5,8-triazaacenaphthylene-2-carboxamide], the “BTK_I_binding pIC50” value is reported as 5.8.

With `Cc1ccccc1N1C(=O)Nc2c(C(=O)N[C@H]3CCCN(C(=O)/C(C#N)=C/C4CC4)C3)sc3nccc1c23` [Example 942, (S,E)-N-(1-(2-Cyano-3-cyclopropylacryloyl)piperidin-3-yl)-4-oxo-5-(o-tolyl)-4,5-dihydro-3H-1-thia-3,5,8-triazaacenaphthylene-2-carboxamide], the “BTK_I_binding pIC50” value was 5.6.

`C=CC(=O)N1CCC[C@@H](NC(=O)c2sc3nccc4c3c2NC(=O)N4c2cccc(N(C)C)c2)C1` [Example 943, (R)—N-(1-Acryloylpiperidin-3-yl)-5-(3-(dimethylamino)phenyl)-4-oxo-4,5-dihydro-3H-1-thia-3,5,8-triazaacenaphthylene-2-carboxamide]: the “BTK_I_binding pIC50” value turned out to be 5.6.

For `Cc1cc(Oc2ccccc2)ccc1N1C(=O)Nc2c(C(=O)NC3CCN(C(=O)CC#N)CC3)sc3nccc1c23` [Example 944, N-(1-(2-Cyanoacetyl)piperidin-4-yl)-5-(2-methyl-4-phenoxyphenyl)-4-oxo-4,5-dihydro-3H-1-thia-3,5,8-triazaacenaphthylene-2-carboxamide], the “BTK_I_binding pIC50” value is 5.6.

In the case of `O=C(N[C@H]1CCN(Cc2ccccc2)C1)c1sc2nccc3c2c1NC(=O)N3c1ccc(Oc2ccccc2)cc1` [Example 945, (S)—N-(1-Benzylpyrrolidin-3-yl)-4-oxo-5-(4-phenoxyphenyl)-4,5-dihydro-3H-1-thia-3,5,8-triazaacenaphthylene-2-carboxamide], the “BTK_I_binding pIC50” value was 5.5.

Turning to `COc1ccc(N2C(=O)Nc3c(C(=O)N[C@H]4CCCN(C(=O)/C(C#N)=C/C5CC5)C4)sc4nccc2c34)c(C)c1` [Example 946, (S,E)-N-(1-(2-Cyano-3-cyclopropylacryloyl)piperidin-3-yl)-5-(4-methoxy-2-methylphenyl)-4-oxo-4,5-dihydro-3H-1-thia-3,5,8-triazaacenaphthylene-2-carboxamide], the “BTK_I_binding pIC50” value is recorded as 5.4.

Consider `CCC(=O)N1CCC(NC(=O)c2sc3nccc4c3c2NC(=O)N4c2ccc(Oc3ccccc3)cc2C)CC1` [Example 947, 5-(2-Methyl-4-phenoxyphenyl)-4-oxo-N-(1-propionylpiperidin-4-yl)-4,5-dihydro-3H-1-thia-3,5,8-triazaacenaphthylene-2-carboxamide], for which the “BTK_I_binding pIC50” value came to 5.4.

In the case of `C=CC(=O)N1CCC[C@@H](NC(=O)c2sc3nccc4c3c2NC(=O)N4c2ccc(N)cc2)C1` [Example 948, (R)—N-(1-Acryloylpiperidin-3-yl)-5-(4-aminophenyl)-4-oxo-4,5-dihydro-3H-1-thia-3,5,8-triazaacenaphthylene-2-carboxamide], the “BTK_I_binding pIC50” value amounted to 5.2.

Turning to `CN(C)c1ccc(N2C(=O)Nc3c(C(=O)N[C@@H]4CCCNC4)sc4nccc2c34)cc1` [Example 949, (R)-5-(4-(Dimethylamino)phenyl)-4-oxo-N-(piperidin-3-yl)-4,5-dihydro-3H-1-thia-3,5,8-triazaacenaphthylene-2-carboxamide], the “BTK_I_binding pIC50” value came out at 5.2.

In the case of `Cc1cccc(N2C(=O)Nc3c(C(=O)N[C@@H]4CCCNC4)sc4nccc2c34)c1` [Example 950, (R)-4-Oxo-N-(piperidin-3-yl)-5-(m-tolyl)-4,5-dihydro-3H-1-thia-3,5,8-triazaacenaphthylene-2-carboxamide], the “BTK_I_binding pIC50” value is recorded as 5.1.

With `O=C(N[C@@H]1CCCNC1)c1sc2nccc3c2c1NC(=O)N3c1ccc(Cl)cc1` [Example 951, (R)-5-(4-Chlorophenyl)-4-oxo-N-(piperidin-3-yl)-4,5-dihydro-3H-1-thia-3,5,8-triazaacenaphthylene-2-carboxamide], the “BTK_I_binding pIC50” value came to 5.1.

For the compound `Cc1ccc(N2C(=O)Nc3c(C(=O)N[C@@H]4CCCNC4)sc4nccc2c34)cc1` [Example 952, (R)-4-Oxo-N-(piperidin-3-yl)-5-(p-tolyl)-4,5-dihydro-3H-1-thia-3,5,8-triazaacenaphthylene-2-carboxamide], the “BTK_I_binding pIC50” value was found to be 5.1.

Regarding `O=C(N[C@@H]1CCCNC1)c1sc2nccc3c2c1NC(=O)N3c1ccc(F)cc1` [Example 953, (R)-5-(4-Fluorophenyl)-4-oxo-N-(piperidin-3-yl)-4,5-dihydro-3H-1-thia-3,5,8-triazaacenaphthylene-2-carboxamide], the “BTK_I_binding pIC50” value is given as 5.1.

`CC(C)(C)c1ccc(N2C(=O)Nc3c(C(=O)N[C@@H]4CCCNC4)sc4nccc2c34)cc1` [Example 954, (R)-5-(4-(tert-Butyl)phenyl)-4-oxo-N-(piperidin-3-yl)-4,5-dihydro-3H-1-thia-3,5,8-triazaacenaphthylene-2-carboxamide]: the “BTK_I_binding pIC50” value was found to be 5.0.

Consider `Cc1cc(N2C(=O)Nc3c(C(=O)N[C@@H]4CCCNC4)sc4nccc2c34)ccc1OC(C)C` [Example 955, (R)-5-(4-Isopropoxy-3-methylphenyl)-4-oxo-N-(piperidin-3-yl)-4,5-dihydro-3H-1-thia-3,5,8-triazaacenaphthylene-2-carboxamide], for which the “BTK_I_binding pIC50” value was below 5.

For the compound `Nc1ccc(N2C(=O)Nc3c(C(=O)N[C@@H]4CCCNC4)sc4nccc2c34)cc1` [Example 956, (R)-5-(4-Aminophenyl)-4-oxo-N-(piperidin-3-yl)-4,5-dihydro-3H-1-thia-3,5,8-triazaacenaphthylene-2-carboxamide], the “BTK_I_binding pIC50” value was below 5.

As to `Cc1c(Oc2ccccc2)cccc1N1C(=O)Nc2c(C(=O)N[C@H]3CCCN(C(=O)/C(C#N)=C/C4CC4)C3)sc3nccc1c23` [Example 957, (S,E)-N-(1-(2-Cyano-3-cyclopropylacryloyl)piperidin-3-yl)-5-(2-methyl-3-phenoxyphenyl)-4-oxo-4,5-dihydro-3H-1-thia-3,5,8-triazaacenaphthylene-2-carboxamide], the “BTK_I_binding pIC50” value is recorded as below 5.

In the case of `C=CC(=O)N1CC[C@@H](NC(=O)c2sc3nccc4c3c2NC(=O)N4c2ccc(Oc3cccnn3)nc2C)C1` [Example 974, (R)—N-(1-Acryloylpyrrolidin-3-yl)-5-(2-methyl-6-(pyridazin-3-yloxy)pyridin-3-yl)-4-oxo-4,5-dihydro-3H-1-thia-3,5,8-triazaacenaphthylene-2-carboxamide], the “BTK_I_binding pIC50” value is 5.6.

Take `C=CC(=O)N1CCC[C@@H](NC(=O)c2sc3nccc4c3c2NC(=O)N4c2ccc(Oc3cccnn3)nc2C)C1` [Example 975, (R)—N-(1-Acryloylpiperidin-3-yl)-5-(2-methyl-6-(pyridazin-3-yloxy)pyridin-3-yl)-4-oxo-4,5-dihydro-3H-1-thia-3,5,8-triazaacenaphthylene-2-carboxamide]: the “BTK_I_binding pIC50” value came to 5.0.
